{
  "source": "patent US20250002470A1",
  "about": "“NITROGEN-CONTAINING COMPOUND, PREPARATION METHOD THEREFOR AND APPLICATION THEREOF” (ZHEJIANG AIXPLORER BIOTECH CO., LTD., priority 2021, published 2025)",
  "data": [
    {"molecular_target": "T1, NLRP3 (Homo sapiens, UniProt Q96P20)", "T1 construct": "endogenous in cells; host or cells: THP-1 cells (IFN-γ differentiated, LPS primed, ATP stimulated)", "T1 sequence (Q96P20 whole entry)": "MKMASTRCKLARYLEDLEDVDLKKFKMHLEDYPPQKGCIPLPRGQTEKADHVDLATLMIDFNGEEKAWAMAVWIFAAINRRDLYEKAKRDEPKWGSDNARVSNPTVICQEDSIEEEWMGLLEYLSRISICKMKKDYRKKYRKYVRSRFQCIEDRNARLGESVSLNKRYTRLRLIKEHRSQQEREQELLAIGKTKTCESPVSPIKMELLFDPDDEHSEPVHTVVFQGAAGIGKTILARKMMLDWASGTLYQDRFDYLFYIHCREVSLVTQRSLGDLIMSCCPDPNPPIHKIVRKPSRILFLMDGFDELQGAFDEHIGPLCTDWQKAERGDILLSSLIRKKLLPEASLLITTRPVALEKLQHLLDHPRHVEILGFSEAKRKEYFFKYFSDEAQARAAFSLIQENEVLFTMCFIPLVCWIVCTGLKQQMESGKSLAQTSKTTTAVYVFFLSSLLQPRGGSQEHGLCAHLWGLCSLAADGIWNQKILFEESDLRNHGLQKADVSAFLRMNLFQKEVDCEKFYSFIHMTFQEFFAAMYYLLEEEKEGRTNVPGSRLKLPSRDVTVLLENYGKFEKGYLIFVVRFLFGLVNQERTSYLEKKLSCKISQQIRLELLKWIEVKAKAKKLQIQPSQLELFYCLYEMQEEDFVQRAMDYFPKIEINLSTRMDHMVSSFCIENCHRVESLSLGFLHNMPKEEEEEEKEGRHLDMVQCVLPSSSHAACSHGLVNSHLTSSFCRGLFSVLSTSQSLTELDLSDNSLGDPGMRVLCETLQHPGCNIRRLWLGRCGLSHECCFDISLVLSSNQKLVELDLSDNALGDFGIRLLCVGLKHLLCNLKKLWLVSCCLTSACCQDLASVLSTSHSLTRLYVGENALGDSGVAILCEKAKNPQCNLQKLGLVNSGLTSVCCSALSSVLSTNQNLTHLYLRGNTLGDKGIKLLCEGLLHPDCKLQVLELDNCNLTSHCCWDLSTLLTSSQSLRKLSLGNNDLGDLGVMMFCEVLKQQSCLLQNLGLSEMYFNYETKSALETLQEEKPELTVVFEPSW", "test": "IL-1β (interleukin-1β) secretion in IFN-γ-differentiated, LPS/ATP-stimulated THP-1 cells (half inhibition rate of NLRP3)", "format": "cell-based", "conditions": "IFN-γ 25 ng/mL, LPS 50 ng/mL, ATP 5 mM", "procedure": "Remove THP-1 cells from liquid nitrogen and place in a 37° C. water bath until ice melt. Add the cells to 5 mL of warm cell culture medium and centrifuge at 1,000 rpm for 5 min. Discard the supernatant and resuspend and culture in a new cell culture medium.\nTHP-1 cells are cultured in the culture medium and passaged every 2-3 days.\n2.1.1 Add 100 μL of cell suspension per well to the cell plate and incubate the cell plate in a 37° C., 5% CO2 incubator for 24 hours.\n2.2.1 Discard the supernatant of IFN-γ differentiation after differentiation treatment. Add 100 μL of serum-free medium containing LPS (final concentration of 50 ng/mL) to the cell plate. The cell plates were incubated in a 37° C., 5% CO2 incubator for 4 h.\nPlace the cell plate in an incubator at 37° C. and 5% CO2 for 1 hour.\n2.2.3 Add 20 μL of 6×ATP per well according to the plate map (final concentration 5 mM) and incubate the cell plate in a 37° C., 5% CO2 incubator for 1 h. Collect the supernatant (60 μL) and store at −20° C.\nThe capture antibody mAb Mt175 is diluted to 2 μg/mL with PBS (1:250) and added to the cell plate at 15 μL per well. Keep the plate overnight at 4° C.\n2.4.1 Discard the coated antibody and wash 4 times with PBST.\n2.4.3 Discard the blocking buffer and wash 4 times with PBST.\n2.4.4 Add 25 μL of 2.2.3 collected supernatant sample per well and incubate for 2 h at room temperature.\n2.4.5 Discard the samples and wash 4 times with PBST.\n2.4.6 Add mAb7P10-biotin (concentration 0.5 ug/mL) to blocking buffer, add 15 μL per well to the cell plate, and incubate for 1 hour at room temperature.\n2.4.7 Discard the antibody and wash 4 times with PBST.\n2.4.8 Streptavidin-HRP was diluted 1:1000 in blocking buffer, 15 μL per well was added to the cell plate, and incubated for 1 hour at room temperature.\n2.4.9 Discard streptavidin-HRP and wash 4 times with PBST.\n2.4.10 Add 25 μL of HRP substrate (Surmodics-TMBW-0100-01) per well and incubate the cell plate until a blue product appears.\n2.4.11 Add 25 μL of stop solution (Surmodics-LSTP-0100-01) per well, and the blue product turns yellow.\n2.4.12 Read the cell plate at 450 nm with a microplate reader.", "units": {"IC50": "nM"}, "values": [
      {"smiles": "Cc1nc(N[C@@H]2CCCN(C)C2)nnc1-c1ncc(C(F)(F)F)cc1O", "note": "[Embodiment 9, (R)-2-(5-methyl-3-((1-methylpiperidin-3-yl)amino)-1,2,4-triazin-6-yl)-5-(trifluoromethyl)pyridin-3-ol]", "IC50": 67},
      {"smiles": "CN1CCC[C@@H](Nc2nnc(-c3ccc(C(F)(F)F)cc3O)c3cc[nH]c23)C1", "note": "[Embodiment 20]", "IC50": 21.3},
      {"smiles": "Cc1cc(C)c(-c2cnc(N[C@@H]3CCCN(CC(=O)O)C3)nn2)c(O)c1", "note": "[Embodiment 3, (R)-2-(3-((6-(2-hydroxy-4,6-dimethylphenyl)-1,2,4-triazin-3-yl)amino)piperidin-1-yl)acetic acid]", "IC50": 53.5},
      {"smiles": "Cc1cc(C)c(-c2nnc(N[C@@H]3CCCN(C)C3)nn2)c(O)c1", "note": "[Embodiment 26, (R)-3,5-Dimethyl-2-(6-((1-methylpiperidin-3)amino)-1,2,4,5-tetraazin-3)phenol]", "IC50": 446},
      {"smiles": "Cc1cc(C)c(-c2cnc(NC3CCCN4CCCC34)nn2)c(O)c1", "note": "[Embodiment 4, (R)-3,5-dimethyl-2-(9-((1,2,3,5,6,7,8,8a-octahydroindozine-9-yl)amino)-1,2,4-triazin-6-yl)phenol]", "IC50": 32.1},
      {"smiles": "Cc1nc(N[C@@H]2CCCN(CC3(O)CC3)C2)nnc1-c1ccc(C(F)(F)F)cc1O", "note": "[Embodiment 134]", "IC50": 14},
      {"smiles": "CCN1CCC[C@@H](Nc2nnc(-c3ccc(C(F)(F)F)cc3O)c(C)n2)C1", "note": "[Embodiment 143]", "IC50": 0.9},
      {"smiles": "CN1CCC[C@@H](Nc2nnc(-c3ccc(C(F)(F)F)cc3O)c3c(F)cccc23)C1", "note": "[Embodiment 122]", "IC50": 2.9},
      {"smiles": "CN1CCC[C@@H](Nc2nnc(-c3ccc(C(F)(F)F)cc3O)c3cccc(F)c23)C1", "note": "[Embodiment 119]", "IC50": 5},
      {"smiles": "Cc1cc(C)c(-c2cnc(N[C@@H]3CCCN(CC(=O)N[C@@H](C)CO)C3)nn2)c(O)c1", "note": "[Embodiment 24, 2-((R)-3-((6-(2-hydroxy-4,6-dimethylphenyl)-1,2,4-triazin-3-yl)amino)piperidin-1-yl)-N—((S)-1-hydroxypropyl-2-yl)acetamide]", "IC50": 193},
      {"smiles": "Cc1nc(N[C@@H]2CCCN(C)C2)nnc1-c1ccc(Cl)cc1O", "note": "[Embodiment 7, (R)-5-Chloro-2-(5-methyl-3-((1-methylpiperidin-3-yl)amino)-1,2,4-triazin-6-yl)phenol]", "IC50": 1.2},
      {"smiles": "CN1CCC[C@@H](Nc2nnc(-c3ccc(C(F)(F)F)cc3O)c3ccoc23)C1", "note": "[Embodiment 18, (R)-2-(7-((1-methylpiperidin-3-yl)amino)furo[2,3-d]pyridazin-4-yl)-5-(trifluoromethyl)phenol]", "IC50": 5.7},
      {"smiles": "CN1CCC[C@@H](Nc2nnc(-c3ccc(Cl)cc3O)c3ccccc23)C1", "note": "[Embodiment 28, (R)-5-chloro-2-(4-((1-methylpiperidin-3-yl)amino)phthalazin-1-yl)phenol]", "IC50": 1.1},
      {"smiles": "Cc1nc(N[C@@H]2CCCN(C)C2)nnc1-c1ccc(C(F)(F)F)cc1O", "note": "[Embodiment 8, (R)-2-(5-methyl-3-((1-methylpiperidin-3-yl)amino)-1,2,4-triazin-6-yl)-5-(trifluoromethyl)phenol]", "IC50": 1.5},
      {"smiles": "Cc1nc(N[C@@H]2CCC[C@@H](O)C2)nnc1-c1ccc(C(F)(F)F)cc1O", "note": "[Embodiment 36, 2-(3-(((1R,3R)-3-hydroxycyclohexyl)amino)-5-methyl-1,2,4-triazin-6-yl)-5-(trifluoromethyl)phenol]", "IC50": 54.2},
      {"smiles": "Cc1cc(Cl)cc(O)c1-c1nnc(N[C@@H]2CCCN(C)C2)c2ccccc12", "note": "[Embodiment 29]", "IC50": 5.1},
      {"smiles": "Cc1nc(N[C@@H]2CCCN(CC(N)=O)C2)nnc1-c1ccc(C(F)(F)F)cc1O", "note": "[Embodiment 42, (R)-2-(3-((6-(2-hydroxy-4-(trifluoromethyl)phenyl)-5-methyl-1,2,4-triazin-3-yl)amino)piperidin-1-yl) acetamide]", "IC50": 62.7},
      {"smiles": "C[C@]1(O)C[C@@H](Nc2nnc(-c3ccc(C(F)(F)F)cc3O)c3ccncc23)C1", "note": "[Embodiment 77, 2-(4-(((cis)-3-hydroxy-3-methylcyclobutyl)amino)pyrido[3,4-d]pyridazin-1-yl)-5-(trifluoromethyl)phenol]", "IC50": 19.4}
    ]}
  ]
}
